In patent publication US20070049593A1 (priority 2004, published 2007):
Counter-ions that a name gives are not always drawn.

molecular target: T1, HCV polymerase (Hepatitis C virus genotype 1b, UniProt P26663); assay: biochemical; design: species or system HCV BK strain; conditions: not given
T1 construct: a region encoding NS5B (J Virol 1991 March, 65(3), 1105-13, 544 amino acids after deletion of 47 amino acids on the C-terminal); 6xHis (C); made in house; host or cells: Escherichia coli
Method in brief: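 Recombinant HCV BK-strain NS5B (C-terminal 47 aa deleted, His6-tagged, E. coli), 0.5 μg/ml, run with 5 μg/ml in vitro-transcribed RNA template (polyU/3′X), ATP/GTP/CTP 50 μM, UTP 2 μM plus [3H]UTP, pH 7.5, 25° C, 90 min. TCA-precipitated RNA counted by scintillation; IC50 from activity with vs without compound.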

T1 sequence (P26663 2420-2963): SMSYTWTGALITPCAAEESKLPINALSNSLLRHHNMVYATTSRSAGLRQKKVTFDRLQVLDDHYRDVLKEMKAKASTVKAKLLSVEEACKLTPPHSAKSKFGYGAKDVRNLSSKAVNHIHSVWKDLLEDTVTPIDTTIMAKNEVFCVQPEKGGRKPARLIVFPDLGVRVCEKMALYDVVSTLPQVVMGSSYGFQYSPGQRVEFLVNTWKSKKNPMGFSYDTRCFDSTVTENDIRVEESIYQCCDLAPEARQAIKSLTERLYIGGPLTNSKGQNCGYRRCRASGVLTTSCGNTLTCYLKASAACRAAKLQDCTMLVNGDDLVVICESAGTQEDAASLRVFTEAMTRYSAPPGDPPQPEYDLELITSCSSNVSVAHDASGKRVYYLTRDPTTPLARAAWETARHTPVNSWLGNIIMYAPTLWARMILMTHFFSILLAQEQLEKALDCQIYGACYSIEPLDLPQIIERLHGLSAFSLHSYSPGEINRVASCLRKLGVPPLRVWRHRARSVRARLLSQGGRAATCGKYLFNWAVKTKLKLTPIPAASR

| SMILES | IC50 |
| --- | --- |
| COC[C@](C)(NC(=O)c1ccc2c(C3CCCCC3)c3n(c2c1)CCOc1cc(OC)ccc1-3)C(=O)O [Example 2-532, (S)-2-[(12-cyclohexyl-3-methoxy-6,7-dihydro-5-oxa-7a-azadibenzo[a,e]azulene-9-carbonyl)amino]-3-methoxy-2-methylpropionic acid] | < 100 nM |
| CCn1c([C@H](Cc2ccc(O)cc2)NC(=O)c2ccc3c(C4CCCCC4)c4n(c3c2)CCOc2cc(OC)ccc2-4)n[nH]c1=O [Example 2-533, N—[(S)-1-(4-ethyl-5-oxo-4,5-dihydro-1H-1,2,4-triazol-3-yl)-2-(4-hydroxyphenyl)ethyl]-12-cyclohexyl-3-methoxy-6,7-dihydro-5-oxa-7a-azadibenzo[a,e]azulene-9-carboxamide] | < 100 nM |
| O=C(O)c1ccc2c(C3CCCCC3)c3n(c2c1)CCOc1c(-c2ccccc2/C=C/C(=O)N2CCCCC2)cccc1-3 [Example 2-534, 12-cyclohexyl-4-{2-[(E)-3-oxo-3-(piperidin-1-yl)propenyl]phenyl}-6,7-dihydro-5-oxa-7a-azadibenzo[a,e]azulene-9-carboxylic acid] | < 100 nM |
| O=C(O)c1ccc2c(C3CCCCC3)c3n(c2c1)CCOc1c(-c2ccccc2CCC(=O)N2CCCCC2)cccc1-3 [Example 2-535, 12-cyclohexyl-4-{2-[3-oxo-3-(piperidin-1-yl)propyl]phenyl}-6,7-dihydro-5-oxa-7a-azadibenzo[a,e]azulene-9-carboxylic acid] | < 100 nM |
| O=C(O)c1ccc2c(C3CCCCC3)c3n(c2c1)CCOc1c(-c2ccccc2CCCN2CCCCC2)cccc1-3 [Example 2-536, 12-cyclohexyl-4-{2-[3-(piperidin-1-yl)propyl]phenyl}-6,7-dihydro-5-oxa-7a-azadibenzo[a,e]azulene-9-carboxylic acid monohydrochloride] | < 100 nM |
| COC[C@](C)(NC(=O)c1ccc2c(C3CCCCC3)c3n(c2c1)CCOc1cc(OC)ccc1-3)C(=O)Nc1ccc(/C=C/C(=O)O)cc1 [Example 2-537, (E)-3-{4-((S)-2-[(12-cyclohexyl-3-methoxy-6,7-dihydro-5-oxa-7a-azadibenzo[a,e]azulene-9-carbonyl)amino]-3-methoxy-2-methylpropionylamino}phenyl)acrylic acid] | < 100 nM |
| COc1ccc2c(c1)OCCn1c-2c(C2CCCCC2)c2ccc(C(=O)N[C@@H](Cc3ccc(OCc4ccccc4)cc3)C3OCCO3)cc21 [Example 2-538, N—[(S)-2-(4-benzyloxyphenyl)-1-(1,3-dioxolan-2-yl)ethyl]-12-cyclohexyl-3-methoxy-6,7-dihydro-5-oxa-7a-azadibenzo[a,e]azulene-9-carboxamide] | < 100 nM |
| CC[N+](CC)(CC)Cc1ccc(CC(NC(=O)c2ccc3c(C4CCCCC4)c4n(c3c2)CCOc2cc(OC)ccc2-4)C(=O)OC)cc1 (stereo not shown) [Example 2-539, N-(4-{2-[(12-cyclohexyl-3-methoxy-6,7-dihydro-5-oxa-7a-azadibenzo[a,e]azulene-9-carbonyl)amino]-2-(methoxycarbonyl)ethyl}benzyl)-N,N,N-triethylammonium chloride] | < 100 nM |
| COc1ccc2c(c1)OCCn1c-2c(C2CCCCC2)c2ccc(C(=O)NC3(C(=O)Nc4ccc5oc(=O)ccc5c4)CCC3)cc21 [Example 2-541, N-[1-(2-oxo-2H-chromen-6-ylcarbamoyl)cyclobutyl]-12-cyclohexyl-3-methoxy-6,7-dihydro-5-oxa-7a-azadibenzo[a,e]azulene-9-carboxamide] | < 100 nM |

same assay, conditions: read-out: HCV polymerase inhibitory activity IC50; 25° C., 90 min; [5,6-3H]UTP incorporation into RNA

| SMILES | IC50 |
| --- | --- |
| COc1ccc2c(c1)OCCn1c-2c(C2CCCCC2)c2ccc(C(=O)NC(C)(C)c3ncc(-c4ccc(C(=O)O)cc4)[nH]3)cc21 [Example 2-540, 4-(2-{1-[(12-cyclohexyl-3-methoxy-6,7-dihydro-5-oxa-7a-azadibenzo[a,e]azulene-9-carbonyl)amino]-1-methylethyl}-3H-imidazol-4-yl)benzoic acid monohydrochloride] | < 100 nM |
